In paper PMC9542104, “Druggability Evaluation of the Neuron Derived Orphan Receptor (NOR‐1) Reveals Inverse NOR‐1 Agonists” (Chemmedchem, 2022):
Where two headings read alike, the source gives them in different places.

Assays:
[1] = target: T1, Gal4‐NOR‐1 (human NOR‐1 LBD) (Homo sapiens, UniProt Q92570); assay: Gal4 hybrid reporter gene assay for NOR‐1 activity in HEK293T cells; assay type: cell-based; conditions: for type of NOR‐1 modulation: Gal4‐NOR‐1; for NOR‐1 activity / activity on NOR‐1: Gal4‐NOR‐1, 100 μM; for IC50: read-out: IC50 (NOR‐1), inverse agonism; for remaining NOR‐1 activity: Gal4‐NOR‐1, remaining activity at maximum inverse agonist effect
T1 construct: coding for the hinge region and LBD of the canonical isoform of NOR‐1; expressed in transfected cells; host or cells: HEK293T
T1 sequence (Q92570 394-623 limits assumed): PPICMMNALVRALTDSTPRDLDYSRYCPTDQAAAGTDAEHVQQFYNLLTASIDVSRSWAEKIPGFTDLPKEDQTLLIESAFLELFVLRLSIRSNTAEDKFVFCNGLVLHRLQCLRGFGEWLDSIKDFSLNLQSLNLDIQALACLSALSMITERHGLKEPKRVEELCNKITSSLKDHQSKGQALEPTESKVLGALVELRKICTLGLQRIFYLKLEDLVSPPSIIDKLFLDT
Description: The screening assay was based on the Gal4 hybrid system[13] and employed a chimeric receptor composed of the human NOR‐1 LBD and the Gal4 DNA binding domain from yeast. Firefly luciferase under the control of five tandem repeats of the Gal4 response element served as reporter gene and constitutively expressed renilla luciferase was used for normalization and toxicity monitoring. Control experiments were conducted with the ligand‐independent transcriptional inducer Gal4‐VP16[14, 15] (replacing Gal4‐NOR‐1) to exclude non‐specific effects.
Hybrid reporter gene assays. The reporter gene assay was performed as reported previously[25] in HEK293T cells in 96‐well format using pFR‐Luc (Stratagene, La Jolla, CA, USA; reporter), pRL‐SV40 (Promega, Madison, WI, USA; control) and the Gal4‐NOR‐1 fusion receptor plasmid pFA‐CMV‐hNOR‐1‐LBD coding for the hinge region and LBD of the canonical isoform of NOR‐1 or pECE‐SV40‐Gal4‐VP16[15] […] In the primary screening, the core set of the Prestwick Drug Fragments Library was tested at 100 μM in two biologically independent repeats. All other samples were tested in duplicates in at least three biologically independent repeats. Luminescence was measured with a Spark 10 M luminometer (Tecan Group AG, Mannedorf, Switzerland), firefly luciferase data were divided by Renilla luciferase data and multiplied by 1000 to obtain relative light units (RLU). Fold activation was obtained by dividing the mean RLU of a test compound at a respective concentration by the mean RLU of untreated control. Dose‐response curves were fitted with the equation “[Agonist]/[Inhibitor] vs. response (three parameters)” in GraphPad Prism (version 7.00, GraphPad Software, La Jolla, CA, USA).

[2] = tested on: MYC mRNA expression in HeLa cells; assay type: cell-based; conditions: 16 h, 1 at 100 and 300 μM, 19 at 10 and 30 μM, GAPDH as reference gene, n=4
Source text: The following primers were used: GAPDH: fw: [NT].

[3] = target: T2, interaction of NOR‐1 with NCoR1 (Homo sapiens, UniProt Q92570); assay: Reporter gene assay for NOR‐1 interaction with NCoR1 in HEK293T cells; assay type: cell-based; conditions: n=3, read-out: IC50, antagonism of NOR‐1 interaction with NCoR1
T2 construct: coding for the hinge region and LBD of the canonical isoform of NOR‐1; expressed in transfected cells; host or cells: HEK293T
T2 sequence (Q92570 394-623 limits assumed): T1 sequence (Q92570 394-623 limits assumed)
Description: (§1) Reporter gene assays for NOR‐1 interactions with NCoR1 and SMRT. The interaction of NOR‐1 with NCoR1 and SMRT was studied in reporter gene assays in HEK293T cells using pFR‐Luc, pRL‐SV40 and pFA‐CMV‐hNOR‐1‐LBD in combination with either pFTI‐CMV‐NCoR1 or pFTI‐CMV‐SMRT, which code for fusion proteins composed of the transcriptional inducer VP16 and fragments of the nuclear receptor co‐regulators NCoR1 or SMRT comprising one interaction motif.[29] […] After 24 h, the medium was changed to Opti‐MEM without supplements and the cells were transiently transfected with above‐described plasmids using Lipofectamine LTX reagent (Invitrogen). […] After 16 h incubation, cells were assayed for luciferase activity using the Dual‐Glo Luciferase Assay System (Promega) and luminescence was measured with a Spark 10 M luminometer (Tecan Group Ltd). Each sample was tested in duplicates in three independent experiments. Firefly luciferase data were divided by renilla luciferase data to obtain relative light units (RLU) and RLU of each test sample were normalized to the negative control (0.1 % DMSO).

[4] = target: T3, interaction of NOR‐1 with SMRT (Homo sapiens, UniProt Q92570); assay: Reporter gene assay for NOR‐1 interaction with SMRT in HEK293T cells; assay type: cell-based; conditions: n=3, read-out: IC50, antagonism of NOR‐1 interaction with SMRT
T3 construct: coding for the hinge region and LBD of the canonical isoform of NOR‐1; expressed in transfected cells; host or cells: HEK293T
T3 sequence (Q92570 394-623 limits assumed): T1 sequence (Q92570 394-623 limits assumed)
Description: as §1

Gal4‐VP16 = target: T4, Gal4‐VP16 (Saccharomyces cerevisiae, UniProt P04386); assay: Gal4‐VP16 control reporter gene assay in HEK293T cells; assay type: cell-based; conditions: 100 μM
T4 construct: host or cells: HEK293T
Source text: To rapidly probe druggability of NOR‐1 and identify potential ligand scaffolds, we have established a robust reporter gene assay to monitor NOR‐1 activity and screened a medium size fragment library for NOR‐1 modulation. The screening assay was based on the Gal4 hybrid system[13] and employed a chimeric receptor composed of the human NOR‐1 LBD and the Gal4 DNA binding domain from yeast. Firefly luciferase under the control of five tandem repeats of the Gal4 response element served as reporter gene and constitutively expressed renilla luciferase was used for normalization and toxicity monitoring. Control experiments were conducted with the ligand‐independent transcriptional inducer Gal4‐VP16[14, 15] (replacing Gal4‐NOR‐1) to exclude non‐specific effects. The commercially available fragment screening library (core set of the Prestwick drug fragments library) comprised 480 compounds with favorable fragment properties (Figure 1a) and offered high structural diversity as illustrated by low average pairwise Jaccard‐Tanimoto similarity computed on Morgan fingerprints[16] (median 0.13; Figure 1b) and by a total of 77 unique Murcko scaffolds.[17] […]
Hybrid reporter gene assays. […] Luminescence was measured with a Spark 10 M luminometer (Tecan Group AG, Mannedorf, Switzerland), firefly luciferase data were divided by Renilla luciferase data and multiplied by 1000 to obtain relative light units (RLU). […]

NOR‐1 = conditions: cited from earlier work

T4 sequence (P04386 1-147, added parts left off): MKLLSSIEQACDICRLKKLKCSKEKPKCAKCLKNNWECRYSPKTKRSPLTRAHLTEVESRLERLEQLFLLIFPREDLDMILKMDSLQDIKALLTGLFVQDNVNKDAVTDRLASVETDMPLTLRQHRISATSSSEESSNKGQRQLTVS

With Nc1ccc(N2CCNCC2)cc1 [compound 8, 4‐aminophenylpiperazine] the “type of NOR‐1 modulation” value [1] was “weak agonists” and the “NOR‐1 activity” value ([1]; n=4) was 124±2 % NOR‐1 activity (100 μM).
Work on COC(=O)c1c[nH]c2cccc(Cl)c12 [compound 13] yielded an IC50 ([1]; Gal4‐NOR‐1, HEK293T cells, n=4) of over 100 µM.
With Oc1ccc(N2CCNCC2)cc1 [compound 4] the “activity on NOR‐1” value [1] was “inactive (100 μM)”.
For CC(=O)N1CCN(c2ccccc2)CC1 [compound 5], the “NOR‐1 activity” value ([1]; n=4) was 93±1 % NOR‐1 activity (100 μM).
COC(=O)c1c(Cl)[nH]c2ccccc12 [compound 12] gave an IC50 ([1]; Gal4‐NOR‐1, HEK293T cells, n=4) of over 100 µM.
For COC(=O)c1c[nH]c2ccc(Br)cc12 [compound 19, Methyl 5‐bromoindole‐3‐carboxylate], the “effect on MYC expression” value [2] was “induced MYC expression”, the IC50 [3] was 12 ± 3 µM and the IC50 [4] was 9 ± 2 µM. For the same compound, the IC50 ([1]; Gal4‐NOR‐1, HEK293T cells, n=4) was 8 ± 1 µM and the “remaining NOR‐1 activity” value ([1]; n=4) was 7±3%.
In the case of CC(=O)N1CCN(c2ccc(O)cc2)CC1 [compound 2], the “effect on Gal4‐VP16 induced reporter activity” value (Gal4‐VP16) is reported as “no suppression”, the “type of NOR‐1 modulation” value [1] is reported as “inverse agonist” and the IC50 ([1]; Gal4‐NOR‐1, HEK293T cells, n=4) is reported as 73 µM. The “remaining NOR‐1 activity” value ([1]; n=4) was 64±7%.
With Clc1ccc(N2CCNCC2)cc1 [compound 6, 4‐chlorophenylpiperazine] the “type of NOR‐1 modulation” value [1] was “weak agonists” and the “NOR‐1 activity” value ([1]; n=4) was 120±6 % NOR‐1 activity (100 μM).
For COC(=O)c1c[nH]c2ccc(C)cc12 [compound 17], the IC50 ([1]; Gal4‐NOR‐1, HEK293T cells, n=4) was 35 ± 8 µM and the “remaining NOR‐1 activity” value ([1]; n=4) was 2±7%.
With COC(=O)c1c[nH]c2cc(Cl)ccc12 [compound 15] the IC50 ([1]; Gal4‐NOR‐1, HEK293T cells, n=4) was over 100 µM.
With COC(=O)c1c[nH]c2ccc(Cl)cc12 [compound 14] the IC50 ([1]; Gal4‐NOR‐1, HEK293T cells, n=4) was 14 ± 2 µM, the “remaining NOR‐1 activity” value ([1]; n=4) was 12±4% and the “improvement in inverse NOR‐1 agonist potency” value ([1]; versus lead 1) was 3.5 fold.
In the case of CCCCC[C@H](O)/C=C/[C@H]1C=CC(=O)[C@@H]1C/C=C\CCCC(=O)O [prostaglandin A2], the “effect on NOR‐1 activity” value (NOR‐1; through direct interaction with its LBD) is listed as “weakly activates NOR‐1”.
In the case of Sc1ncnc2nc[nH]c12 [6‐mercaptopurine], the “binding to the NOR‐1 ligand binding domain (LBD)” value (NOR‐1) is listed as “does not bind” and the “effect on NOR‐1 activity” value (NOR‐1; requires the N‐terminal AF‐1 of NOR‐1) is listed as “enhanced NOR‐1 activity”.
With COC(=O)c1cn(-c2ccccc2)c2ccccc12 [compound 11] the “activity on NOR‐1” value [1] was “inactive”.
In the case of COC(=O)c1c[nH]c2ccccc12 [compound 1], the “effect on MYC expression” value [2] is reported as “induced MYC expression”, the “effect on Gal4‐VP16 induced reporter activity” value (Gal4‐VP16) is reported as “no suppression” and the “type of NOR‐1 modulation” value [1] is reported as “inverse agonist”. The IC50 ([1]; Gal4‐NOR‐1, HEK293T cells, n=4) was 47 ± 8 µM and the “remaining NOR‐1 activity” value ([1]; n=4) was 47±6%.
In the case of CN1CCN(c2ccc(N)cc2)CC1 [compound 10], the “activity on NOR‐1” value [1] is reported as “inactive (100 μM)”.
In the case of O=C(O)CCc1ccc(Cl)cc1 [compound 3], the “type of NOR‐1 modulation” value [1] is reported as “agonist”, the EC50 ([1]; Gal4‐NOR‐1, HEK293T cells, n=4, read-out: EC50 (NOR‐1), agonism) is reported as 44 ± 6 µM and the “max. activation of NOR‐1” value ([1]; Gal4‐NOR‐1, n=4) is reported as 132±4%. The “effect of added inverse agonist 1 on the EC50 value of 3 (competition experiment)” value ([1]; fixed concentration of 1 (100 μM), n=3) was “did not affect the EC50 value”.
In the case of COC(=O)c1c[nH]c2ccc(-c3ccccc3)cc12 [compound 20], the IC50 ([1]; Gal4‐NOR‐1, HEK293T cells, n=4) is reported as 4 ± 2 µM and the “remaining NOR‐1 activity” value ([1]; n=4) is reported as 49±5%.
In the case of COc1ccc(N2CCNCC2)cc1 [compound 9, 4‐Methoxyphenylpiperazine], the “activity on NOR‐1” value [1] is reported as “inactive (100 μM)”.
Work on COC(=O)c1c[nH]c2c(Cl)cccc12 [compound 16] yielded an IC50 ([1]; Gal4‐NOR‐1, HEK293T cells, n=4) of over 100 µM.
For COC(=O)c1c[nH]c2ccc(OC)cc12 [compound 18], the IC50 ([1]; Gal4‐NOR‐1, HEK293T cells, n=4) was 43 ± 5 µM and the “remaining NOR‐1 activity” value ([1]; n=4) was 13±4%.
